Measured values reported in patent US20120245137A1 (Zalicus Pharmaceuticals Ltd., priority 2009, published 2012).
Where two headings read alike, the source gives them in different places.

Key:
Type in all cases: cell-based
[1] = biological target: CAv1.2 (Homo sapiens, UniProt Q13936); assay: FLIPR data, CAv1.2 channel blocking (Table 6); settings: for CAv1.2 IC50 Ratio closed/inact.: ratio closed/inactivated IC50
[2] = biological target: Human Cav 2.2 channels (Homo sapiens, UniProt Q00975); assay: Fluorescent assay for CaV2.2 channels using potassium depolarization (VIPR/FLIPR); settings: FLIPR data; for CAv2.2 IC50 Ratio closed/inact.: ratio closed/inactivated IC50
Summary of the method: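 HEK293 cells stably expressing human Cav2.2 with α2δ and β subunits plus Kir2.3 were loaded with fluo-4 and incubated 30 min at 25 °C with compound in 4, 12, 25 or 30 mM potassium buffer. Channels were opened with 70 mM potassium (final) and calcium influx was read by fluorescence (Ex 480/Em 535 nm).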

[3] = biological target: T-type calcium channel (Homo sapiens, UniProt O95180); assay: T-type channel blocking, FLIPR data (Table 6); settings: for CAv3.2 IC50 Ratio closed/inact.: CAv3.2, ratio closed/inactivated IC50
From the text: (§1) Another method, high-throughput spectrophotometric assay, utilizes loading of the cell lines with a fluorescent dye sensitive to intracellular calcium concentration and subsequent examination of the effects of compounds on the ability of depolarization by potassium chloride or other means to alter intracellular calcium levels.

[4] = biological target: T-type calcium channel (Homo sapiens, UniProt O43497); assay: T-type channel blocking, FLIPR data (Table 6); settings: CAv3.1
From the text: as §1

[5] = inactivated state, read-out: CAv1.2 IC50 Inact.
[6] = closed state, read-out: CAv2.2 IC50 Closed
[7] = inactivated state, read-out: CAv2.2 IC50 Inact.
[8] = CAv3.2, closed state, read-out: CAv3.2 IC50 Closed
[9] = CAv3.2, inactivated state, read-out: CAv3.2 IC50 Inact.
[10] = closed state, read-out: CAv1.2 IC50 Closed

CAv1.2, sequence (Q13936 whole entry): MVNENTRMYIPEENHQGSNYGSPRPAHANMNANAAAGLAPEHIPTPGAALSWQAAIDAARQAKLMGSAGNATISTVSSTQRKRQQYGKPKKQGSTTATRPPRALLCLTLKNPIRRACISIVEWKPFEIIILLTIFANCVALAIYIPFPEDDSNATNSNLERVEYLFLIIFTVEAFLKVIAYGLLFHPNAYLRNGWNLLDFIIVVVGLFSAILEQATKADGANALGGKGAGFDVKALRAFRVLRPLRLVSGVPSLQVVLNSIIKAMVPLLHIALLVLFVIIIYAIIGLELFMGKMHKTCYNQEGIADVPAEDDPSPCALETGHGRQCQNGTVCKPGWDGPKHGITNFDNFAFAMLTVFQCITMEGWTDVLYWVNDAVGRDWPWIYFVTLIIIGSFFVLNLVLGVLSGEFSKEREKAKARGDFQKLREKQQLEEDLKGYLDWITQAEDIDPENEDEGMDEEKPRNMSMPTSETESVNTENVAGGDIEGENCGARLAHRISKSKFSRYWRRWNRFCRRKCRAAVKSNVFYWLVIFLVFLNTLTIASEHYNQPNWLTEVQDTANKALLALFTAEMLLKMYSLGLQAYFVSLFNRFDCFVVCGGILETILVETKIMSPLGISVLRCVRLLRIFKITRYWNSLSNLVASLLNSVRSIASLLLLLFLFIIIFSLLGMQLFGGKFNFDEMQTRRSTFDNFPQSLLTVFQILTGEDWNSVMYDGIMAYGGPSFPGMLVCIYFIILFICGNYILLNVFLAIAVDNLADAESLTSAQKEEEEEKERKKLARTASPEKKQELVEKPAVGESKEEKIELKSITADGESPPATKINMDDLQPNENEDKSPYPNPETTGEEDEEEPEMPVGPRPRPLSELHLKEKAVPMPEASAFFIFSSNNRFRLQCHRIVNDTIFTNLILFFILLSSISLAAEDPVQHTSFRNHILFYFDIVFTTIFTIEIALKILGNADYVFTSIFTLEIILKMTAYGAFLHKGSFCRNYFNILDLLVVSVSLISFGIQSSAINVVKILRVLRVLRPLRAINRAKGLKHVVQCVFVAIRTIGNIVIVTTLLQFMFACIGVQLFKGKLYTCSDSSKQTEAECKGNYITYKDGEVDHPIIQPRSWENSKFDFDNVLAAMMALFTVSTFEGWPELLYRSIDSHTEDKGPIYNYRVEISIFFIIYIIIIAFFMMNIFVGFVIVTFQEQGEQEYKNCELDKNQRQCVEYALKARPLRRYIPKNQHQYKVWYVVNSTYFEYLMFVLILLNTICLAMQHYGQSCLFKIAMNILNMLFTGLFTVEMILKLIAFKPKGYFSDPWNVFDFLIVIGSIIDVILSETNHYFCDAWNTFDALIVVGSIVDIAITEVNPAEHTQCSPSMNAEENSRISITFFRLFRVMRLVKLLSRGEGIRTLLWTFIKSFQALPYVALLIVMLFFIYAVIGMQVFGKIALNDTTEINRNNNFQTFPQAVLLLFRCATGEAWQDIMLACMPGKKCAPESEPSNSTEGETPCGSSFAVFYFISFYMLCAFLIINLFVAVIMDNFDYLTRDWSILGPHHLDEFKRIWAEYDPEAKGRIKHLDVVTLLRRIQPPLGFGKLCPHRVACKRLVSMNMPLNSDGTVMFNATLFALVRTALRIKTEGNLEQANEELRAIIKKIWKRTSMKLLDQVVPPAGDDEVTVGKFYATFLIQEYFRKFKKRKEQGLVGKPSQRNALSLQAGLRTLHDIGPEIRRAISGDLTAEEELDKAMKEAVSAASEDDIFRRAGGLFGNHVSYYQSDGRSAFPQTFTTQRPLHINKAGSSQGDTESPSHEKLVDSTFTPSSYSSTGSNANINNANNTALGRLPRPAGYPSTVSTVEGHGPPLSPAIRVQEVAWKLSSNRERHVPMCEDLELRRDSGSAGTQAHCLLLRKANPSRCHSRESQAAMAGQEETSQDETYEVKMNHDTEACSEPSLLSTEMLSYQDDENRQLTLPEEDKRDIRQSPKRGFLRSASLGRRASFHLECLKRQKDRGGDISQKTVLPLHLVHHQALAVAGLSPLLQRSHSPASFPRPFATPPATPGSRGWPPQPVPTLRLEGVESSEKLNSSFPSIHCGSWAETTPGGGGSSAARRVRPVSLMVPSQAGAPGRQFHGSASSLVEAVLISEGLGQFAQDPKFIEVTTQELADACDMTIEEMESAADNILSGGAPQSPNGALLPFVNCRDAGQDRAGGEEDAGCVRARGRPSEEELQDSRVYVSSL
CAv1.2, sequence (P54289 25-1103 partner): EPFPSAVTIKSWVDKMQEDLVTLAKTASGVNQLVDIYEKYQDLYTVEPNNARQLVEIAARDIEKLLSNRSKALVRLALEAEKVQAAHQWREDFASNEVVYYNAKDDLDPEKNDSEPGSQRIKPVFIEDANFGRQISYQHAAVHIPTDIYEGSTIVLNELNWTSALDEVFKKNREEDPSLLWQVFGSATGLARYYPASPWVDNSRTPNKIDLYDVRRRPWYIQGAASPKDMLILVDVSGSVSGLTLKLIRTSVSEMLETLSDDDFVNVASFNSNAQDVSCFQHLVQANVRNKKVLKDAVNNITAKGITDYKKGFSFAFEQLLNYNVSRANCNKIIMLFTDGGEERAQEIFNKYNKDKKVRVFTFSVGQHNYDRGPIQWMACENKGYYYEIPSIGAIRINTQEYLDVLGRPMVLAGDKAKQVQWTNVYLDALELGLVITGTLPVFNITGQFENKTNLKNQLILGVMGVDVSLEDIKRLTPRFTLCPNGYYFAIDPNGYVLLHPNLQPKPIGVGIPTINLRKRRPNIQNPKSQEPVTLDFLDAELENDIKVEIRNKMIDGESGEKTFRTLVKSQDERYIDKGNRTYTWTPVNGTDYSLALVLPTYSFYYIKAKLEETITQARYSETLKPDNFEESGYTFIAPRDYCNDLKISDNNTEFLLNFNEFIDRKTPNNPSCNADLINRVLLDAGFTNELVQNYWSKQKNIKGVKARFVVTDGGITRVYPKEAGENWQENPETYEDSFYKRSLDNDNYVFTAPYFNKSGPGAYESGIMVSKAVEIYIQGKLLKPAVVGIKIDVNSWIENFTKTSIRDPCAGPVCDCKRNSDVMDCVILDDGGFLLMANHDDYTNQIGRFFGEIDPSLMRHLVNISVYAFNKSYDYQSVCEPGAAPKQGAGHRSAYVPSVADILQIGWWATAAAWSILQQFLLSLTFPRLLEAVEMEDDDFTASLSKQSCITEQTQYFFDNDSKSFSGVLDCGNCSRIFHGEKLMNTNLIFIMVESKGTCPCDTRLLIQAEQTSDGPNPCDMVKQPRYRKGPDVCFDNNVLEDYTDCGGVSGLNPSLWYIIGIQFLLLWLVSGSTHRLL
CAv1.2, sequence (Q08289 whole entry partner): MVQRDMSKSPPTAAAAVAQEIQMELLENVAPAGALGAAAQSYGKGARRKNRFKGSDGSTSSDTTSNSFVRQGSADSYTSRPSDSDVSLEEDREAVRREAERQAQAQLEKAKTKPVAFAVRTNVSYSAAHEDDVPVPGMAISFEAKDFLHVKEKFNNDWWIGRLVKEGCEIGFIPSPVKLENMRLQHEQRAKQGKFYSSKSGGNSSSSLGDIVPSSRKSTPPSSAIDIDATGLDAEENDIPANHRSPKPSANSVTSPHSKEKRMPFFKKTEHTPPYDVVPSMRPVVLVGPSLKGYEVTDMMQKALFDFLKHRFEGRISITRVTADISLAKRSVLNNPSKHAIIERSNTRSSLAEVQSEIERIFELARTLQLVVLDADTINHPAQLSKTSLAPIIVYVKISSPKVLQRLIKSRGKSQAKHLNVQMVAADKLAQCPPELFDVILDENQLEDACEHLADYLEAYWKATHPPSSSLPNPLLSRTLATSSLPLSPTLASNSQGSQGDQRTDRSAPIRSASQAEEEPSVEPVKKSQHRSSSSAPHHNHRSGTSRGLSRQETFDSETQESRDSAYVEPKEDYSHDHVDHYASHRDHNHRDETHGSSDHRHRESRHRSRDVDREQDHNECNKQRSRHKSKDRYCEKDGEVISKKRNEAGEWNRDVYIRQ

Row | IC50 [2, 6] [µM] | IC50 [2, 7] [µM] | CAv2.2 IC50 Ratio closed/inact. [2] | IC50 [3, 8] [µM] | IC50 [3, 9] [µM] | CAv3.2 IC50 Ratio closed/inact. [3] | IC50 [4] [µM] | SMILES | IC50 [1, 5] [µM] | IC50 [1, 10] [µM] | CAv1.2 IC50 Ratio closed/inact. [1]
1 | 5.25 | 0.82 | 6.4 | ≥ 10 | 5.08 | 2 | 3.57 | CC(C)([C@H]1C[C@@H](NS(=O)(=O)c2ccc(Cl)c(F)c2)C1)S(=O)(=O)c1cc(F)cc(C(F)(F)F)c1 [Compound 600] | 2.22 | 6.93 | 3.1
2 | 10 | 3.26 | 3.1 | 6.41 | 3.59 | 1.8 | 9.04 | O=S(=O)(c1cc(F)cc(C(F)(F)F)c1)[C@H]1C[C@@H](CNc2ccnc(C(F)(F)F)n2)C1 [Compound 651] | 3.86 | 9.21 | 2.4
3 | 5.55 | 0.72 | 7.7 | 6.56 | 3.6 | 1.8 | ≥ 10 | CC(C)([C@H]1C[C@@H](NC(=O)c2cc(C(F)(F)F)n[nH]2)C1)S(=O)(=O)c1cc(F)cc(C(F)(F)F)c1 [Compound 587] | 4.85 | ≥ 10 | 2.1
4 | 4.83 | 1.19 | 4.1 | 2.4 | 2.74 | 0.9 | 3.13 | CC(C)([C@H]1C[C@H](Nc2ccnc(C(F)(F)F)n2)C1)S(=O)(=O)c1cc(F)cc(C(F)(F)F)c1 [Compound 649] | 1.81 | 6.39 | 3.5
5 | 5.74 | 0.7 | 8.2 | ≥ 10 | 4.56 | 2.2 | 7.56 | CC(C)([C@H]1C[C@@H](NS(=O)(=O)c2ccc(C(F)(F)F)cc2)C1)S(=O)(=O)c1cc(F)cc(C(F)(F)F)c1 [Compound 598] | 2.83 | 9.38 | 3.3
6 | 5.05 | 0.99 | 5.1 | 5.14 | 4.1 | 1.3 | 2.81 | CC(C)([C@H]1C[C@@H](Nc2ccnc(C(F)(F)F)n2)C1)S(=O)(=O)c1cc(F)cc(C(F)(F)F)c1 [Compound 648] | 2.28 | 8.41 | 3.7

The remaining lines, values behind:

Row | SMILES | IC50 [2, 6] [µM] | IC50 [2, 7] [µM] | CAv2.2 IC50 Ratio closed/inact. [2] | IC50 [3, 8] [µM] | IC50 [3, 9] [µM] | CAv3.2 IC50 Ratio closed/inact. [3] | IC50 [4] [µM] | IC50 [1, 5] [µM] | IC50 [1, 10] [µM] | CAv1.2 IC50 Ratio closed/inact. [1]
7 | O=C(NC[C@H]1C[C@H](S(=O)(=O)c2cc(F)cc(C(F)(F)F)c2)C1)c1ccc(C(F)(F)F)nc1 [Compound 704] | 10 | 1.65 | 6.1 | ≥ 10 | 8.75 | 1.1 | ≥ 10 | ≥ 10 | – | –
8 | CC(C)([C@H]1C[C@@H](CNC(=O)c2ccnc(C(F)(F)F)c2)C1)S(=O)(=O)c1cccc(C(F)(F)F)c1 [Compound 687] | 4.11 | 0.53 | 7.8 | 1.65 | – | – | 2.61 | 2.39 | ≥ 10 | 4.2
9 | CC(C)([C@H]1C[C@H](NC(=O)c2ccc(Cl)c(F)c2)C1)S(=O)(=O)c1cccc(OC(F)(F)F)c1 [Compound 633] | 2.06 | 0.19 | 10.8 | 0.63 | 0.57 | 1.1 | 2.3 | 1.18 | 5.74 | 4.9
10 | CC(C)([C@H]1C[C@@H](NC(=O)c2ccc(Cl)cn2)C1)S(=O)(=O)c1cccc(C(F)(F)F)c1 [Compound 578] | 3.46 | 0.46 | 7.5 | 7.71 | 5.3 | 1.5 | ≥ 10 | 8.38 | 9.07 | 1.1
11 | CC(C)(C1CC(CNC(=O)c2cc(C(F)(F)F)n[nH]2)C1)S(=O)(=O)c1cccc(C(F)(F)F)c1 (stereo not shown) [Compound 614] | 2.87 | 0.49 | 5.9 | 7.2 | 3.2 | 2.3 | ≥ 10 | 2.41 | 8.03 | 3.3
12 | CC(C)([C@H]1C[C@@H](NC(=O)c2ccc(OCC(F)(F)F)nc2)C1)S(=O)(=O)c1cccc(C(F)(F)F)c1 [Compound 582] | 2.88 | 0.19 | 15.2 | 4.35 | 1.31 | 3.3 | ≥ 10 | 2.06 | 5.77 | 2.8
13 | CC(C)(C[C@H]1C[C@H](NC(=O)c2ccc(OCC(F)(F)F)nc2)C1)S(=O)(=O)c1cccc(C(F)(F)F)c1 [Compound 724] | 0.98 | 0.09 | 10.9 | 2.24 | 0.83 | 2.7 | 1.41 | 1.21 | 5.23 | 4.3
14 | CC(C)([C@H]1C[C@H](NS(=O)(=O)c2ccc(OC(F)(F)F)cc2)C1)S(=O)(=O)c1cccc(C(F)(F)F)c1 [Compound 669] | 7.9 | 0.96 | 8.2 | 2.65 | 2.55 | 1 | 2.74 | 3.33 | ≥ 10 | 3
15 | CC(C)S(=O)(=O)c1cc(C(F)(F)F)cnc1C(=O)NCC1CC(C(C)(C)S(=O)(=O)c2cccc(C(F)(F)F)c2)C1 (stereo not shown) [Compound 613] | 6.51 | 0.35 | 18.6 | 9.16 | 5.45 | 1.7 | ≥ 10 | 5.92 | 8 | 1.4
16 | CC(C)(C1CC(CNC(=O)c2ccc(F)c(Cl)c2)C1)S(=O)(=O)c1cccc(C(F)(F)F)c1 (stereo not shown) [Compound 618] | 1.3 | 0.12 | 10.8 | 1.99 | 0.35 | 5.7 | 2.47 | 0.3 | 4.08 | 13.6
17 | CC(C)(C[C@H]1C[C@H](NC(=O)c2ccc(Cl)cn2)C1)S(=O)(=O)c1cccc(C(F)(F)F)c1 [Compound 720] | 0.83 | 0.16 | 5.2 | 3.95 | 2.05 | 1.9 | 4.5 | 2.45 | 7.01 | 2.9
